Laboratory results: PMC4770715, “LIM kinase inhibitors disrupt mitotic microtubule organization and impair tumor cell proliferation” (Oncotarget, 2015)

Key:
Experiment in all cases: biochemical
Parameters in all cases: KINOMEscan active-site competition binding, percent of control (100 = no competition)
Settings in all cases: competition binding, percent control
ACVR2A = ACVR2A (Homo sapiens, UniProt P27037)
ANKK1 = ANKK1 (Homo sapiens, UniProt Q8NFD2)
BRK = target: T1, BRK (Homo sapiens, UniProt Q13882)
T1 construct: gene PTK6
T1 sequence (Q13882 whole entry): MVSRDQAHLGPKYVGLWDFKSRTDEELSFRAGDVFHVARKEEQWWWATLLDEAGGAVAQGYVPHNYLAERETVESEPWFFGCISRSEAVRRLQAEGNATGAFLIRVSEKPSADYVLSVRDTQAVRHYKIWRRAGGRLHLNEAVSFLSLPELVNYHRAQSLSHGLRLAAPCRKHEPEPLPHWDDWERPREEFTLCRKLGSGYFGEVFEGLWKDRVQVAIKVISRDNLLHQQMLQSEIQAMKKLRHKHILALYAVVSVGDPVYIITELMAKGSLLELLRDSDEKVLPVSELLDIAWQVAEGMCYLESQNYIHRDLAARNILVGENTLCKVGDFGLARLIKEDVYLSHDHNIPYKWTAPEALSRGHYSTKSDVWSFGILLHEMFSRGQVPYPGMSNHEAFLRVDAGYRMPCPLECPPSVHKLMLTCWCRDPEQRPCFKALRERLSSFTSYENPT

CDK4-cyclinD1 = target: T2, CDK4-cyclinD1 (Homo sapiens, UniProt P11802)
T2 construct: cyclinD1

CIT = CIT (Homo sapiens, UniProt O14578)
CSNK1D = CSNK1D (Homo sapiens, UniProt P48730)
EPHA2 = EPHA2 (Homo sapiens, UniProt P29317)
GSK3B = GSK3B (Homo sapiens, UniProt P49841)
HUNK = HUNK (Homo sapiens, UniProt P57058)
IKK-beta = target: T3, IKK-beta (Homo sapiens, UniProt O14920)
T3 construct: gene IKBKB

LATS1 = LATS1 (Homo sapiens, UniProt O95835)
MARK3 = MARK3 (Homo sapiens, UniProt P27448)
MARK3, sequence (P27448 whole entry): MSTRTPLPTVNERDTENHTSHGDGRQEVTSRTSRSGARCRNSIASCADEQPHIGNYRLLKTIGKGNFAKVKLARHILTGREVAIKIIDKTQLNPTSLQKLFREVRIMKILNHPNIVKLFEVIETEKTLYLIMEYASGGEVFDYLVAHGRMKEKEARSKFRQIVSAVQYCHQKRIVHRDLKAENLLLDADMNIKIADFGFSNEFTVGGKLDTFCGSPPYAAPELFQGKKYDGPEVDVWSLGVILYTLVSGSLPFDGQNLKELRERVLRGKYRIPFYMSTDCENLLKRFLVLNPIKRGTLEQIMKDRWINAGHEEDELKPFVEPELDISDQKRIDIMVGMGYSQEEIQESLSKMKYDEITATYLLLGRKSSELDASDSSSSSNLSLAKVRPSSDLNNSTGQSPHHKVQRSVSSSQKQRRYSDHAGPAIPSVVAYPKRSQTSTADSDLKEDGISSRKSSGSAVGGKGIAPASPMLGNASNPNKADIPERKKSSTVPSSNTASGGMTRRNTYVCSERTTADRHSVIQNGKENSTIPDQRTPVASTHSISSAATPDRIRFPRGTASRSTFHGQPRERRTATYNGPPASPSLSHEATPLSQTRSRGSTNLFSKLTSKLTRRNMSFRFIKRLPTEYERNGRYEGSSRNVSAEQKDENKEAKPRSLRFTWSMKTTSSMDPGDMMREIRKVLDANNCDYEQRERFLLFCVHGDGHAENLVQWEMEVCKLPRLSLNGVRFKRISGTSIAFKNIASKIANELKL

MST4 = target: T4, MST4 (Homo sapiens, UniProt Q9P289)
T4 construct: gene STK26

MYLK2 = MYLK2 (Homo sapiens, UniProt Q9H1R3)
NDR1 = target: T5, NDR1 (Homo sapiens, UniProt Q15208)
T5 construct: gene STK38

NEK4 = NEK4 (Homo sapiens, UniProt P51957)
NEK4, sequence (P51957 whole entry): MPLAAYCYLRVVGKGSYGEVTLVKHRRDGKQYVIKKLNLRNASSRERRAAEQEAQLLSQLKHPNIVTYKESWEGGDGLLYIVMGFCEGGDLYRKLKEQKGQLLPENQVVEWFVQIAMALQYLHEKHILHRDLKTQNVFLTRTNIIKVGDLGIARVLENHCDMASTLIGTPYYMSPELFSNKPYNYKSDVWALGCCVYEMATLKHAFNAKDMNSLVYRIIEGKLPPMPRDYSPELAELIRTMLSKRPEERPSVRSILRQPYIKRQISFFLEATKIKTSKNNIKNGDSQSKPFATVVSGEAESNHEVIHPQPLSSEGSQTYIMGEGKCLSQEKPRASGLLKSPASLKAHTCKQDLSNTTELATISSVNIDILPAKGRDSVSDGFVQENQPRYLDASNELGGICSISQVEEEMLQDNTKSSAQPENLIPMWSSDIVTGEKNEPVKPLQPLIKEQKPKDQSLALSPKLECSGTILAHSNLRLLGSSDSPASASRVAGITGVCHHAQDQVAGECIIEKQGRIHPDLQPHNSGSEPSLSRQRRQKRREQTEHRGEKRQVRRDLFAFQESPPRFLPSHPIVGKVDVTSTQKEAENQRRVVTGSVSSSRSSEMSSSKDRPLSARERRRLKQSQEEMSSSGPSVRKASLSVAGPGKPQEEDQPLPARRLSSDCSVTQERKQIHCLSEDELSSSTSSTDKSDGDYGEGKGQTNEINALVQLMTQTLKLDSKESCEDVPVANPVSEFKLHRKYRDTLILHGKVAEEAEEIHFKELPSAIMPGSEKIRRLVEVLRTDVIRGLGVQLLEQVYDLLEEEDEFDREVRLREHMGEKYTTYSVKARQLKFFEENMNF

PIK3CA = PIK3CA (Homo sapiens, UniProt P42336)
PIK3CG = PIK3CG (Homo sapiens, UniProt P48736)
PIK3CG, sequence (P48736 whole entry): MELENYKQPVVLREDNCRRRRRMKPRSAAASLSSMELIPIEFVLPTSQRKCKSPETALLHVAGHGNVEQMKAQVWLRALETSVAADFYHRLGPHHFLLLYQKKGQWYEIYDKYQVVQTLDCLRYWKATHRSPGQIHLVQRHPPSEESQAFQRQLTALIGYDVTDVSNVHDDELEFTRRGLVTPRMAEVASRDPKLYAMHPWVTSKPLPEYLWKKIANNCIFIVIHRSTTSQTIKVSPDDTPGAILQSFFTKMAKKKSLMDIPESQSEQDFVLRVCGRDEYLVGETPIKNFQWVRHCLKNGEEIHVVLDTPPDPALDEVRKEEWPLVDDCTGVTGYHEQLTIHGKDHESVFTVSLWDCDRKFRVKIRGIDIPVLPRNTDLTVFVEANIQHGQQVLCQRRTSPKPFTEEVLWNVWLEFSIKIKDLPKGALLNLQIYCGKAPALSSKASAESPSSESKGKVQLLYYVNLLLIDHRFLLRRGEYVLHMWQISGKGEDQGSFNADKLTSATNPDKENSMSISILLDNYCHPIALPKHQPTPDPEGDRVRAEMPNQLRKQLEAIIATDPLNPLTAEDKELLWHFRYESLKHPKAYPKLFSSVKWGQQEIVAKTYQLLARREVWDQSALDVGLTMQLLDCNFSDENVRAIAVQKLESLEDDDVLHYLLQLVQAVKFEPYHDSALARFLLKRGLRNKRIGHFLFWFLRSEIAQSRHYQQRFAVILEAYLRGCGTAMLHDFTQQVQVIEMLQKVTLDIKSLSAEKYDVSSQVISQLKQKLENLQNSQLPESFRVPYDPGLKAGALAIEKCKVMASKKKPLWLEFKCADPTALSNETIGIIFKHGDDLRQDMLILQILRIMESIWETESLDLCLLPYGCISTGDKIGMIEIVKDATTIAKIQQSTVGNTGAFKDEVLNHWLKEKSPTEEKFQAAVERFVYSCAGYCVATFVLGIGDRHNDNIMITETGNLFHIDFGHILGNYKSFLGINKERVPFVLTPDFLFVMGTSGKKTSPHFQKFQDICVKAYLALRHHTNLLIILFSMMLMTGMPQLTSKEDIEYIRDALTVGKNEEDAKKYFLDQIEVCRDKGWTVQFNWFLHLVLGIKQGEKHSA

PKAC-alpha = target: T6, PKAC-alpha (Homo sapiens, UniProt P17612)
T6 construct: gene PRKACA

PRKR = target: T7, PRKR (Homo sapiens, UniProt P19525)
T7 construct: gene EIF2AK2
T7 sequence (P19525 whole entry): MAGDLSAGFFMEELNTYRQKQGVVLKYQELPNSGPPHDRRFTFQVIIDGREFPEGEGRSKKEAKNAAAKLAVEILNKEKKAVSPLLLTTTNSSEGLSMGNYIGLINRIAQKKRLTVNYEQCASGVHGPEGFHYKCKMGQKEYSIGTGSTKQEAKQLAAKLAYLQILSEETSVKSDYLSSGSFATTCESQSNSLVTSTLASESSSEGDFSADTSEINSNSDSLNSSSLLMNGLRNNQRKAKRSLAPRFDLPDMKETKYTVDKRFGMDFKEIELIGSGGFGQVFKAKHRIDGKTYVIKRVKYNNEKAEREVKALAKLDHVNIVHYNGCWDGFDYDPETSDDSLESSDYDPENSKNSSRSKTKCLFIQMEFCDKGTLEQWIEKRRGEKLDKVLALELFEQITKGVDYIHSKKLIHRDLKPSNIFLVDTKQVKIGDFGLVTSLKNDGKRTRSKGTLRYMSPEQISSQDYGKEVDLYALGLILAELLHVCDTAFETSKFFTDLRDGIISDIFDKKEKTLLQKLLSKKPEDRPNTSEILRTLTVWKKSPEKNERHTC

[1] = target: T8, RPS6KA4(Kin.Dom.2-C-terminal) (Homo sapiens, UniProt O75676)
T8 construct: Kin.Dom.2-C-terminal
T8 sequence (O75676 whole entry): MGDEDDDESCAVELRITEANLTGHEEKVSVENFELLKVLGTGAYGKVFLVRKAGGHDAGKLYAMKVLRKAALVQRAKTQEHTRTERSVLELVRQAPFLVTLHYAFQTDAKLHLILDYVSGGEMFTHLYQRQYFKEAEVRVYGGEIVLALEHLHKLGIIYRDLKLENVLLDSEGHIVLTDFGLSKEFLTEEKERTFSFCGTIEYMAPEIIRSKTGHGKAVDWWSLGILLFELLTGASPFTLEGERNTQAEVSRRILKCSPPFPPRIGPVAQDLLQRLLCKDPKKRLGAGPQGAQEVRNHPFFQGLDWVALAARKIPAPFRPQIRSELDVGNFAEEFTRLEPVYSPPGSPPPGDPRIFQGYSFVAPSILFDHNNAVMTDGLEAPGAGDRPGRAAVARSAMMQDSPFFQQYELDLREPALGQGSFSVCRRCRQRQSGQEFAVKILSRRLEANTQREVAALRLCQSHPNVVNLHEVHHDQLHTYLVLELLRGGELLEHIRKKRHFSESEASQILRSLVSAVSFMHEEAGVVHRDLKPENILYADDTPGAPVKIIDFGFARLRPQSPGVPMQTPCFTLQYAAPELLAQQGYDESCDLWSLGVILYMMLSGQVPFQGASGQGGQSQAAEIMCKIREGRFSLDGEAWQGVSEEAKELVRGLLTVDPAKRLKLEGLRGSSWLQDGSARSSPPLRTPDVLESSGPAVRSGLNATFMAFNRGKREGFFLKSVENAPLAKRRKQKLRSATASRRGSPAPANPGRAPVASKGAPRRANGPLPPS

TBK1 = TBK1 (Homo sapiens, UniProt Q9UHD2)
TNIK = TNIK (Homo sapiens, UniProt Q9UKE5)

ACVR2A, sequence (P27037 whole entry): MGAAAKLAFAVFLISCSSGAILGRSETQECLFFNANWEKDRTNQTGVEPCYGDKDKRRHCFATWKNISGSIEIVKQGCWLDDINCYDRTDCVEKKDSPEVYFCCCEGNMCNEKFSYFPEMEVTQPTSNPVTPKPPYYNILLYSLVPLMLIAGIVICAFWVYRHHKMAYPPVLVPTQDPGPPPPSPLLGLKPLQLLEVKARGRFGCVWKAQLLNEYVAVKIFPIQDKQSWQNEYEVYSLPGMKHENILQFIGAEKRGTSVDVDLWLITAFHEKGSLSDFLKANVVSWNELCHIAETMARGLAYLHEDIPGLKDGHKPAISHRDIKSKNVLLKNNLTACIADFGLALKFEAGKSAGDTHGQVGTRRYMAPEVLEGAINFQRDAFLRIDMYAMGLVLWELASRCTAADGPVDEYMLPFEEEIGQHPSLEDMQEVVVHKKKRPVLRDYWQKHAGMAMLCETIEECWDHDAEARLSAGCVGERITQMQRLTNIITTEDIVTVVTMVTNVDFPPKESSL

Row | SMILES | remaining binding at 10 µM (ACVR2A) [%] | remaining binding at 10 µM (ANKK1) [%] | remaining binding at 10 µM (BRK) [%] | remaining binding at 10 µM (CDK4-cyclinD1) [%] | remaining binding at 10 µM (CIT) [%] | remaining binding at 10 µM (CSNK1D) [%] | remaining binding at 10 µM (EPHA2) [%] | remaining binding at 10 µM (GSK3B) [%] | remaining binding at 10 µM (HUNK) [%] | remaining binding at 10 µM (IKK-beta) [%] | remaining binding at 10 µM (LATS1) [%] | remaining binding at 10 µM (MARK3) [%] | remaining binding at 10 µM (MST4) [%] | remaining binding at 10 µM (MYLK2) [%] | remaining binding at 10 µM (NDR1) [%] | remaining binding at 10 µM (NEK4) [%] | remaining binding at 10 µM (PIK3CA) [%] | remaining binding at 10 µM (PIK3CG) [%] | remaining binding at 10 µM (PKAC-alpha) [%] | remaining binding at 10 µM (PRKR) [%] | further results
1 | COc1ccc(-c2cnccc2-c2cnc(NC(=O)C(C)C)s2)c(C(F)(F)F)c1 [CRT0105446, N-{5-[3-(4-Methoxy-2-trifluoromethyl-phenyl)-pyridin-4-yl]-hiazol-2-yl}-isobutyramide] | 74 | 99 | 100 | 20 | 37 | 27 | 100 | 82 | 89 | 88 | 91 | 78 | 61 | 49 | 100 | 91 | 100 | 96 | 100 | 81 | remaining binding at 10 µM [1]: 57%; remaining binding at 10 µM (TBK1): 82%; remaining binding at 10 µM (TNIK): 89%
2 | Cc1ccc(-c2cnccc2-c2cnc(Nc3ccc(O)cc3)s2)c(Cl)c1 [CRT0105950, 4-{5-[3-(2-Chloro-4-methyl-phenyl)-pyridin-4-yl]-thiazol-2-ylamino}-phenol] | 45 | 69 | 100 | 3.7 | 44 | 6.1 | 70 | 86 | 49 | 88 | 23 | 51 | 37 | 49 | 86 | 77 | 100 | 82 | 41 | 53 | remaining binding at 10 µM [1]: 72%; remaining binding at 10 µM (TBK1): 52%; remaining binding at 10 µM (TNIK): 10%
